Measurements reported in patent publication US12540118B2, “Dendrene amide compound, bactericide and use thereof” (Jiangsu Flag Chemical Industry Co., Ltd., priority 2020, dated 2026).

What was measured:
succinate dehydrogenase = biological target: T1, succinate dehydrogenase (Sus scrofa, UniProt A5GZW8+D0VWV4+Q007T0); test: Enzyme activity assay, succinate dehydrogenase (DCIP reduction); type: biochemical, porcine; settings: read-out: Inhibitors (10 μM, SQR)
T1 construct: isolated from porcine hearts; from tissue; host or cells: porcine heart
T1 sequence (Q0QF01 43-664 partner): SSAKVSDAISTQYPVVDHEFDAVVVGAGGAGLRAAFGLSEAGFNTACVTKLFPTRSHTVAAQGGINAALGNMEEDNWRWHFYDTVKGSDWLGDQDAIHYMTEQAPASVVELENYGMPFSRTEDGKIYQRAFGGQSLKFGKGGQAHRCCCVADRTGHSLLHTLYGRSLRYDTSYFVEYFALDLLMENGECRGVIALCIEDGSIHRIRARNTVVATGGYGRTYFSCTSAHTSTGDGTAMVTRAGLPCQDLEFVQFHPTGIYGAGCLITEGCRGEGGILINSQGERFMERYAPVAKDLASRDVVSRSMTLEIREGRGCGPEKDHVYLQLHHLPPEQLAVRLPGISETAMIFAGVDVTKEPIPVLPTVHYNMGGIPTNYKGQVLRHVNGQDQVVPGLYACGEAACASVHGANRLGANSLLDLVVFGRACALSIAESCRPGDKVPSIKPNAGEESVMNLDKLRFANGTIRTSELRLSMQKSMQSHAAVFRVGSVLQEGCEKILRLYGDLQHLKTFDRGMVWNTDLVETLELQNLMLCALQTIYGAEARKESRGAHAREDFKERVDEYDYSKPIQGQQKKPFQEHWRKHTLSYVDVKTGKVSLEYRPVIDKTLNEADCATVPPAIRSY
T1 sequence (Q007T0 29-280): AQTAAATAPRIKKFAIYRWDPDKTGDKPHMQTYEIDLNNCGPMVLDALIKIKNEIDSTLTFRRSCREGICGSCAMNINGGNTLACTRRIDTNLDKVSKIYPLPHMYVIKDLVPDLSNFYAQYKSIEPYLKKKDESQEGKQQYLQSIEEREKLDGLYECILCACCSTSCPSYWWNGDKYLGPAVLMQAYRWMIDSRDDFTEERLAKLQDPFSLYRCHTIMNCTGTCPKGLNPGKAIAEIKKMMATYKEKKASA
T1 sequence (D0VWV4 30-169): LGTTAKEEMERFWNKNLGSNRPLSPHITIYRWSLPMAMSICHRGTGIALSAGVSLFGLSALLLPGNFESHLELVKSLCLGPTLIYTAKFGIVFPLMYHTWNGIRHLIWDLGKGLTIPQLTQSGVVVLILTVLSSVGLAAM
T1 sequence (A5GZW8 57-159 limits assumed): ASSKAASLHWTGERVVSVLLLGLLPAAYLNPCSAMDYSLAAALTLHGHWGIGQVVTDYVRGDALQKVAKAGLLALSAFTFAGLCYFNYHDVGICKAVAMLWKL
How it was run: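 Porcine heart succinate dehydrogenase (2 nM) in 100 mM sodium phosphate pH 7.4, 0.3 mM EDTA, 20 mM sodium succinate and 53 μM DCIP at 23° C with stirring. DCIP reduction followed at 600 nm (ε 21 mM^−1 cm^−1); linear slope minus baseline gives initial rate.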

Erysiphe graminis = Erysiphe graminis potting method; type: in vivo; settings: Blumeria graminis; 100 mg/L; read-out: Erysiphe graminis control rating
Method: The fungicidal activity of the control agents and target compounds are determined. The test and investigation method refers to SOP-SC-1116 Erysiphe graminis potting method in disinfectant rolls written by KANGZHUO and GUBAOGEN in “Standard operation specification for testing biological activity of pesticides”.

Sphaerotheca fuliginea = Sphaerotheca fuliginea potting method; type: in vivo; settings: Podosphaera fuliginea; 100 mg/L; read-out: Sphaerotheca fuliginea control rating
Method: The fungicidal activity of the control agents and target compounds are determined. The test and investigation method refers to SOP-SC-1101 sphaerotheca fuliginea potting method in disinfectant rolls written by KANGZHUO and GUBAOGEN in “Standard operation specification for testing biological activity of pesticides”.

SMILES | inhibition at 10 µM (succinate dehydrogenase) | pest or weed control at 100 µg/mL (Erysiphe graminis) | pest or weed control at 100 µg/mL (Sphaerotheca fuliginea)
Cn1nc(C(F)F)c(C(=O)N(CC(=C(Cl)Cl)c2cc(Cl)cc(Cl)c2)C2CC2)c1F [Compound 122] | > 90% | 80 to 100% | 80 to 100%
Cn1nc(C(F)F)c(C(=O)N(CC(=C(Cl)Cl)c2cccc(F)c2)C2CC2)c1F [Compound 124] | > 90% | 80 to 100% | 80 to 100%
Cn1nc(C(F)F)c(C(=O)N(CC(=C(Cl)Cl)c2cc(F)ccc2F)C2CC2)c1F [Compound 127] | > 90% | 80 to 100% | 80 to 100%
Cn1nc(C(F)F)c(C(=O)N(CC(=C(Cl)Cl)c2c(F)cccc2F)C2CC2)c1F [Compound 128] | > 90% | 80 to 100% | 80 to 100%
Cn1nc(C(F)F)c(C(=O)N(CC(=C(Cl)Cl)c2ccc(Br)cc2)C2CC2)c1F [Compound 131] | > 90% | 80 to 100% | 80 to 100%
Cn1nc(C(F)F)c(C(=O)N(CC(=C(Cl)Cl)c2ccc(Br)cc2Br)C2CC2)c1F [Compound 134] | > 90% | 80 to 100% | 80 to 100%
Cn1nc(C(F)F)c(C(=O)N(CC(=C(Cl)Cl)c2cc(Br)ccc2Br)C2CC2)c1F [Compound 135] | > 90% | 80 to 100% | 80 to 100%
Cc1cccc(C(CN(C(=O)c2c(C(F)F)nn(C)c2F)C2CC2)=C(Cl)Cl)c1 [Compound 139] | > 90% | 80 to 100% | 80 to 100%
Cc1ccc(C(CN(C(=O)c2c(C(F)F)nn(C)c2F)C2CC2)=C(Cl)Cl)c(C)c1 [Compound 140] | > 90% | 80 to 100% | 80 to 100%
Cc1ccc(C)c(C(CN(C(=O)c2c(C(F)F)nn(C)c2F)C2CC2)=C(Cl)Cl)c1 [Compound 141] | > 90% | 80 to 100% | 80 to 100%
Cc1cccc(C)c1C(CN(C(=O)c1c(C(F)F)nn(C)c1F)C1CC1)=C(Cl)Cl [Compound 142] | > 90% | 80 to 100% | 80 to 100%
Cc1cc(C)c(C(CN(C(=O)c2c(C(F)F)nn(C)c2F)C2CC2)=C(Cl)Cl)c(C)c1 [Compound 143] | > 90% | 80 to 100% | 80 to 100%
Cc1cc(C(C)C)ccc1C(CN(C(=O)c1c(C(F)F)nn(C)c1F)C1CC1)=C(Cl)Cl [Compound 148] | > 90% | 80 to 100% | 80 to 100%
Cc1ccccc1C(CN(C(=O)c1c(C(F)F)nn(C)c1F)C1CC1)=C(Cl)Cl [Compound 149] | > 90% | 80 to 100% | 80 to 100%
Cc1ccc(C(CN(C(=O)c2c(C(F)F)nn(C)c2F)C2CC2)=C(Cl)Cl)cc1 [Compound 150] | > 90% | 80 to 100% | 80 to 100%
Cc1cc(C)cc(C(CN(C(=O)c2c(C(F)F)nn(C)c2F)C2CC2)=C(Cl)Cl)c1 [Compound 152] | > 90% | 80 to 100% | 80 to 100%
Cn1nc(C(F)F)c(C(=O)N(CC(=C(Cl)Cl)c2ccc(F)cc2Cl)C2CC2)c1F [Compound 154] | > 90% | 80 to 100% | 80 to 100%
Cn1nc(C(F)F)c(C(=O)N(CC(=C(Cl)Cl)c2cccc(C(F)(F)F)c2Cl)C2CC2)c1F [Compound 157] | > 90% | 80 to 100% | 80 to 100%
Cn1nc(C(F)F)c(C(=O)N(CC(=C(Cl)Cl)c2ccc(C(F)(F)F)cc2Cl)C2CC2)c1F [Compound 158] | > 90% | 80 to 100% | 80 to 100%

The next lines start with results.

inhibition at 10 µM (succinate dehydrogenase) | SMILES | pest or weed control at 100 µg/mL (Erysiphe graminis) | pest or weed control at 100 µg/mL (Sphaerotheca fuliginea)
> 90% | Cn1nc(C(F)F)c(C(=O)N(CC(=C(Cl)Cl)c2ccc(Cl)c(Cl)c2)C2CC2)c1F [Compound 121] | 80 to 100% | 80 to 100%
> 90% | Cn1nc(C(F)F)c(C(=O)N(CC(=C(Cl)Cl)c2c(Cl)cc(Cl)cc2Cl)C2CC2)c1F [Compound 123] | 80 to 100% | 80 to 100%
> 90% | Cn1nc(C(F)F)c(C(=O)N(CC(=C(Cl)Cl)c2ccc(F)cc2F)C2CC2)c1F [Compound 126] | 80 to 100% | 80 to 100%
> 90% | Cn1nc(C(F)F)c(C(=O)N(CC(=C(Cl)Cl)c2c(F)cc(F)cc2F)C2CC2)c1F [Compound 129] | 80 to 100% | 80 to 100%
> 90% | Cn1nc(C(F)F)c(C(=O)N(CC(=C(Cl)Cl)c2ccc(F)c(F)c2)C2CC2)c1F [Compound 130] | 80 to 100% | 80 to 100%
> 90% | Cn1nc(C(F)F)c(C(=O)N(CC(=C(Cl)Cl)c2ccccc2Br)C2CC2)c1F [Compound 132] | 80 to 100% | 80 to 100%
> 90% | Cn1nc(C(F)F)c(C(=O)N(CC(=C(Cl)Cl)c2cccc(Br)c2)C2CC2)c1F [Compound 133] | 80 to 100% | 80 to 100%
> 90% | Cn1nc(C(F)F)c(C(=O)N(CC(=C(Cl)Cl)c2c(Br)cccc2Br)C2CC2)c1F [Compound 136] | 80 to 100% | 80 to 100%
> 90% | Cn1nc(C(F)F)c(C(=O)N(CC(=C(Cl)Cl)c2c(Br)cc(Br)cc2Br)C2CC2)c1F [Compound 137] | 80 to 100% | 80 to 100%
> 90% | Cn1nc(C(F)F)c(C(=O)N(CC(=C(Cl)Cl)c2ccc(Br)c(Br)c2)C2CC2)c1F [Compound 138] | 80 to 100% | 80 to 100%
> 90% | Cc1ccc(C(C)C)cc1C(CN(C(=O)c1c(C(F)F)nn(C)c1F)C1CC1)=C(Cl)Cl [Compound 144] | 80 to 100% | 80 to 100%
> 90% | Cc1ccc(C(C)C)c(C(CN(C(=O)c2c(C(F)F)nn(C)c2F)C2CC2)=C(Cl)Cl)c1 [Compound 145] | 80 to 100% | 80 to 100%
> 90% | Cc1ccc(C(C)(C)C)c(C(CN(C(=O)c2c(C(F)F)nn(C)c2F)C2CC2)=C(Cl)Cl)c1 [Compound 146] | 80 to 100% | 80 to 100%
> 90% | Cc1ccc(C(C)(C)C)cc1C(CN(C(=O)c1c(C(F)F)nn(C)c1F)C1CC1)=C(Cl)Cl [Compound 147] | 80 to 100% | 80 to 100%
> 90% | Cc1ccc(C(CN(C(=O)c2c(C(F)F)nn(C)c2F)C2CC2)=C(Cl)Cl)cc1C [Compound 151] | 80 to 100% | 80 to 100%
> 90% | Cn1nc(C(F)F)c(C(=O)N(CC(=C(Cl)Cl)c2ccc(Cl)cc2F)C2CC2)c1F [Compound 153] | 80 to 100% | 80 to 100%
> 90% | Cn1nc(C(F)F)c(C(=O)N(CC(=C(Cl)Cl)c2cc(Cl)ccc2F)C2CC2)c1F [Compound 155] | 80 to 100% | 80 to 100%
> 90% | Cn1nc(C(F)F)c(C(=O)N(CC(=C(Cl)Cl)c2cc(C(F)(F)F)ccc2Cl)C2CC2)c1F [Compound 156] | 80 to 100% | 80 to 100%
> 90% | Cn1nc(C(F)F)c(C(=O)N(CC(=C(Cl)Cl)c2ccc(S(C)(=O)=O)cc2Cl)C2CC2)c1F [Compound 159] | 80 to 100% | 80 to 100%
> 90% | Cn1nc(C(F)F)c(C(=O)N(CC(=C(Cl)Cl)c2cccc(S(C)(=O)=O)c2)C2CC2)c1F [Compound 160] | 80 to 100% | 80 to 100%
> 90% | Cn1nc(C(F)F)c(C(=O)N(CC(=C(Cl)Cl)c2ccccc2S(C)(=O)=O)C2CC2)c1F [Compound 161] | 80 to 100% | 80 to 100%
> 90% | Cn1nc(C(F)F)c(C(=O)N(CC(=C(Cl)Cl)c2cc(S(C)(=O)=O)ccc2Cl)C2CC2)c1F [Compound 162] | 80 to 100% | 80 to 100%
> 90% | CCS(=O)(=O)c1ccc(C(CN(C(=O)c2c(C(F)F)nn(C)c2F)C2CC2)=C(Cl)Cl)cc1 [Compound 163] | 80 to 100% | 80 to 100%
> 90% | CCS(=O)(=O)c1cccc(C(CN(C(=O)c2c(C(F)F)nn(C)c2F)C2CC2)=C(Cl)Cl)c1 [Compound 164] | 80 to 100% | 80 to 100%
